From PubChem BioAssay (NCI)
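Cells were grown in 96-well plates and exposed to each compound for 48 hours at five concentrations; endpoints were interpolated linearly between bracketing concentrations, or set to the highest concentration if not reached. The concentration for 50% growth inhibition is given as GI50. TGI is the concentration that stops growth completely.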

Assays:
Experiment in all cases: NCI-60 cell line screen, 48 h
ACHN renal = system: ACHN renal
HOP-92 NSCLC = system: HOP-92 NSCLC
LOX IMVI melanoma = system: LOX IMVI melanoma
MCF7 breast = system: MCF7 breast
MDA-MB-231 breast = system: MDA-MB-231 breast
PC-3 prostate = system: PC-3 prostate
SF-268 CNS = system: SF-268 CNS
U251 CNS = system: U251 CNS
UACC-257 melanoma = system: UACC-257 melanoma
UO-31 renal = system: UO-31 renal

Compound	TGI (ACHN renal) [µM]	TGI (HOP-92 NSCLC) [µM]	TGI (LOX IMVI melanoma) [µM]	TGI (MCF7 breast) [µM]	TGI (MDA-MB-231 breast) [µM]	TGI (PC-3 prostate) [µM]	TGI (SF-268 CNS) [µM]	TGI (U251 CNS) [µM]	TGI (UACC-257 melanoma) [µM]	TGI (UO-31 renal) [µM]	GI50 (ACHN renal) [µM]	GI50 (HOP-92 NSCLC) [µM]	GI50 (LOX IMVI melanoma) [µM]	GI50 (MCF7 breast) [µM]	GI50 (MDA-MB-231 breast) [µM]	GI50 (PC-3 prostate) [µM]	GI50 (SF-268 CNS) [µM]	GI50 (U251 CNS) [µM]	GI50 (UACC-257 melanoma) [µM]	GI50 (UO-31 renal) [µM]
O=C1CSC2=NC3=C(CSC/C3=C\c3ccccc3)C(c3ccccc3)N12 (stereo not given)	> 100	> 100	> 100	> 100	> 100	> 100	> 100	> 100	> 100	> 100										
CNC(=O)OC(COC)CN1CCN(c2ccccc2C)CC1 (stereo not given)	> 10	> 10	> 10	> 10	> 10	> 10	> 10	> 10	> 10	> 10										
ClCc1cccc(CSc2ncnc3c2ncn3Cc2cccc(CCl)c2)c1	4.39	3.32	2.74	3.3	3.82	3.34	4.91	3.01	3.37	3.93	2	1.64	1.4	1.59	1.93	1.67	1.99	1.59	1.74	1.74
CC(=O)C(=[N+]=[N-])C(=O)N(C)CCC#N	> 10	> 10	> 10	> 10	> 10	> 10	> 10	> 10	> 10	> 10										
COC(=O)/C=C\C(C#N)(C#N)N=Cc1sccc1C	3.8	3.9	3.31	3.13	1.93	19.8	26.1	> 40.6	23.3	3.51										
O=C(O)c1ccc(Nc2nc3cc(C(F)(F)F)ccc3n3cccc23)cc1	> 100	> 100	30.5	> 100	49.8	93.5	> 100	52.6	71.6	> 100										
COc1cc2ccc1OCc1cccc(n1)COc1ccc(cc1OC)C=NCCNCCNCCN=C2	> 100	> 100	> 100	> 100	> 100	> 100	> 100	> 100	> 100	> 100										
O=[N+]([O-])/C(C(Cl)=C(Cl)Cl)=C(\N1CCCCC1)n1nnc2ccccc21	42.3	39.6	31.7	> 69.4	34.5	32.8	45	31.1	37.2	34.3										
CC(C)(C)OC(=O)Cn1ncn(NC(=O)Cc2ccccc2)c1=O	> 10	> 10	> 10	> 10	> 10	> 10	> 10	> 10	> 10	> 10										
CN(C(=O)Cc1cc(Cl)c(Cl)cc1NC(=O)CN)[C@H]1CCCC[C@@H]1N1CCCC1	> 100	> 100	41.6	> 100	71.2	> 100	> 100	32.6	33.9	> 100										
CC[P+]1(c2ccccc2)[C@@H](C)CC[C@@H]1C	> 100	> 100	> 100	> 100	> 100	> 100	> 100	> 100	> 100	> 100										
Cc1ccc(S(=O)(=O)N/N=C2/CC3CCC4CC2CC34)cc1 (stereo not given)	> 100	> 100	> 100	> 100	> 100	> 100	> 100	> 100	> 100	> 100										
C=CCOc1ccccc1C1(O)c2ccccc2C2=NCCCN21 (stereo not given)	83.9	> 100	> 100	> 100	> 100	57.2	> 100	> 100	> 100	> 100										
C[N+]1(CCC[N+]2(C)CC3C4C=CC(CC4)C3C2)CCOCC1 (stereo not given)	> 100	> 100	> 100	> 100	> 100	> 100	> 100	> 100	> 100	> 100										
O=C(Nc1sccc1S(=O)(=O)c1ccccc1)c1ccccc1	> 100	> 100	> 100	> 100	> 100	> 100	> 100	> 100	> 100	> 100										
COc1cc(NC=C2C(=O)OC(C)(C)OC2=O)c(OC)c(C)c1OC	> 100	> 100	> 100	> 100	> 100	> 100	> 100	> 100	> 100	> 100										
CC1CN=C(c2cccc(-c3nc(-c4cccc(C5=NCC(C)N5)c4)nc(N(C)C)n3)c2)N1 (stereo not given)	10.1	20.3	2.6	3.33	3.48	3.31	10.7	2.13	11	13.4										

Compound	TGI (ACHN renal) [µM]	TGI (HOP-92 NSCLC) [µM]	TGI (LOX IMVI melanoma) [µM]	TGI (MCF7 breast) [µM]	TGI (MDA-MB-231 breast) [µM]	TGI (PC-3 prostate) [µM]	TGI (SF-268 CNS) [µM]	TGI (U251 CNS) [µM]	TGI (UACC-257 melanoma) [µM]	TGI (UO-31 renal) [µM]	GI50 (ACHN renal) [µM]	GI50 (HOP-92 NSCLC) [µM]	GI50 (LOX IMVI melanoma) [µM]	GI50 (MCF7 breast) [µM]	GI50 (MDA-MB-231 breast) [µM]	GI50 (PC-3 prostate) [µM]	GI50 (SF-268 CNS) [µM]	GI50 (U251 CNS) [µM]	GI50 (UACC-257 melanoma) [µM]	GI50 (UO-31 renal) [µM]
C=CCN(c1cc(OC)c2[nH]c(C(=O)OCC)c(C)c2c1[N+](=O)[O-])S(C)(=O)=O	69.5	72.4	39.4	52.2	33.7	38.1	> 100	31.6	> 100	74.8										
Cc1cc(O)c(/C=N/C(=S)Nc2ccccc2)c(=O)o1	> 100	> 100	> 100	> 100	> 100	> 100	> 100	> 100	> 100	> 100										
C=CCCCCOC1C=CC(O)C(CO)O1 (stereo not given)	> 100	> 100	> 100	> 100	> 100	> 100	> 100	> 100	> 100	> 100										
CC1(C)CCCCCC(C)(CCCO)C1=O (stereo not given)	> 100	> 100	> 100	> 100	> 100	> 100	> 100	> 100	> 100	> 100										
CCOC(=O)c1c(N2CCCC2)ncn(C)c1=S	> 100	> 100	> 100	> 100	> 100	> 100	> 100	> 100	> 100	> 100										
COc1cccc2cc(C(C)=O)c(=O)oc12	> 100	> 100	> 100	> 100	> 100	> 100	> 100	> 100	> 100	> 100										
O=C(NNS(=O)(=O)c1ccccc1)c1cccnc1	> 100	> 100	> 100	> 100	> 100	> 100	> 100	> 100	> 100	> 100										
Cc1ccc(O)c(C2=CC(c3cccc(Br)c3)SC(N)=N2)c1 (stereo not given)	52.2	60.4	34.7	> 100	64	> 100	88.9	33.4	41.3	65.3										
CCCN1C(=O)/C(=C\c2ccc(OC)c(OC)c2)SC1=Nc1ccccc1	> 100	> 100	> 100	> 100	> 100	> 100	> 100	> 100	> 100	> 100										
CCOC(=O)CN1CC(C2=C(O)CN(CC(=O)OCC)C2=O)=CC1=O	> 100	> 100	> 100	> 100	> 100	> 100	> 100	> 100	> 100	> 100										
COc1ccc2c3c1OC1C34CCN(C)C(C2)C4=CC(I)C1(OC)OC (stereo not given)	23.4	24.5	23.9	19	36	23.2	42.8	29.8	26.9	28.5										
CCn1c(=O)c2nc(SC)sc2n(-c2ccccc2)c1=O	> 100	> 100	> 100	> 100	> 100	> 100	> 100	> 100	> 100	56.4										
Cc1cccc(C)c1Nc1nc(C)c(C(=O)CC(=O)C(=O)Nc2c(C(C)C)cccc2C(C)C)s1	> 100	> 100	> 100	> 100	> 100	> 100	> 100	> 100	> 100	> 100										
N#CCN(CC#N)C1CC=CCC1N(CC#N)CC#N (stereo not given)	> 100	> 100	> 100	> 100	> 100	> 100	> 100	> 100	> 100	> 100										
c1ccc2c(c1)ccn1ccc3c4ccccc4nc-3c21	1.87	4.44	1.48	1.11	2.2	1.67	2.29	1.47	2.92	2.24										
CCOC(=O)C(C)c1nc2ccc(C(F)(F)F)cc2[nH]c1=O (stereo not given)	> 100	> 100	> 100	> 100	> 100	> 100	> 100	> 100	> 100	> 100										
